ChEMBL document CHEMBL1201862, “PubChem BioAssay data set” (2004)
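Each compound was tested at five concentrations against cells in 96-well plates for 48 hours. GI50 is the concentration that inhibits growth by half.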 Calls of active or inactive are those of the source. Rule as the data show it: active = GI50 up to about 1.1 µM and inactive = higher.

Assays:
Test in all cases: growth of human tumour cells (NCI), 48 h
Malme-3M = test system: Malme-3M
NCI-H226 = test system: NCI-H226
ACHN = test system: ACHN
A498 = test system: A498
SN12C = test system: SN12C
UACC-257 = test system: UACC-257
U-251 = test system: U-251
NCI-H522 = test system: NCI-H522
COLO 205 = test system: COLO 205
EKVX = test system: EKVX
SNB-19 = test system: SNB-19
CCRF-CEM = test system: CCRF-CEM
SNB-78 = test system: SNB-78
SNB-75 = test system: SNB-75
A549 = test system: A549

| SMILES | GI50 (Malme-3M) | GI50 (NCI-H226) | GI50 (ACHN) | GI50 (A498) | GI50 (SN12C) | GI50 (UACC-257) | GI50 (U-251) | GI50 (NCI-H522) | GI50 (COLO 205) | GI50 (EKVX) | GI50 (SNB-19) | GI50 (CCRF-CEM) | GI50 (SNB-78) | GI50 (SNB-75) | GI50 (A549) |
| --- | --- | --- | --- | --- | --- | --- | --- | --- | --- | --- | --- | --- | --- | --- | --- |
| CCc1cccc(C)c1NC(=O)C(=O)Cc1nc2ccccc2o1 | > 100 µM (inactive) | > 100 µM (inactive) | > 100 µM (inactive) | > 100 µM (inactive) | > 100 µM (inactive) | > 100 µM (inactive) | > 100 µM (inactive) | > 100 µM (inactive) | > 100 µM (inactive) | > 100 µM (inactive) | > 100 µM (inactive) | > 100 µM (inactive) | > 100 µM (inactive) | – | – |
| COc1cc2c(c(OC)c1OC)-c1ccc(SC)c(=O)cc1[C@@H](NC(=O)c1cccc([N+](=O)[O-])c1)CC2 | 0.0161 µM (active) | < 0.01 µM (active) | 0.0489 µM (active) | 0.0198 µM (active) | 0.0282 µM (active) | < 0.01 µM (active) | 0.0221 µM (active) | < 0.01 µM (active) | 0.0168 µM (active) | 0.0386 µM (active) | – | 0.0301 µM (active) | 0.0243 µM (active) | 0.0264 µM (active) | – |
| CCN(CC)CCNc1ccc2nnn3c4ccc(OC)cc4c(=O)c1c23 | 10.4 µM (inactive) | 6.3 µM (inactive) | 4.71 µM (inactive) | 13.3 µM (inactive) | 5.96 µM (inactive) | 12.5 µM (inactive) | 10.4 µM (inactive) | 6.7 µM (inactive) | 6.5 µM (inactive) | – | 11.4 µM (inactive) | 3.52 µM (inactive) | 10.7 µM (inactive) | 7.82 µM (inactive) | 5.56 µM (inactive) |
| CC1(Br)CC2OC3(Br)C=CC(C)(O)C2(CC1=O)C3(C)C (stereo not given) | > 100 µM (inactive) | > 100 µM (inactive) | > 100 µM (inactive) | > 100 µM (inactive) | > 100 µM (inactive) | > 100 µM (inactive) | > 100 µM (inactive) | 53.3 µM (inactive) | > 100 µM (inactive) | > 100 µM (inactive) | > 100 µM (inactive) | 16 µM (inactive) | > 100 µM (inactive) | 64.6 µM (inactive) | > 100 µM (inactive) |
| CN(C)c1ccc2nc3c(ccc4ccccc43)[o+]c2c1 | 12.9 µM (inactive) | 17.7 µM (inactive) | 13.8 µM (inactive) | 17.8 µM (inactive) | 17.1 µM (inactive) | 4.67 µM (inactive) | 16.1 µM (inactive) | 2.52 µM (inactive) | 16.3 µM (inactive) | 20.9 µM (inactive) | 17.7 µM (inactive) | 3.17 µM (inactive) | 14.6 µM (inactive) | 17.5 µM (inactive) | 18.7 µM (inactive) |
| NC(=O)N1N=C2c3ccccc3OC[C@H]2[C@@H]1c1ccccc1 | 21.1 µM (inactive) | 22.5 µM (inactive) | 5.68 µM (inactive) | 16.4 µM (inactive) | 23.9 µM (inactive) | 10.9 µM (inactive) | 5.14 µM (inactive) | 3.3 µM (inactive) | 18.2 µM (inactive) | 35.2 µM (inactive) | 31.6 µM (inactive) | 13.4 µM (inactive) | > 38.5 µM (inactive) | 16.6 µM (inactive) | 5.4 µM (inactive) |
| C/C(=C\C(=O)Nc1ccc2[nH]nnc2c1)Nc1ccc2[nH]nnc2c1 | > 100 µM (inactive) | > 100 µM (inactive) | > 100 µM (inactive) | > 100 µM (inactive) | > 100 µM (inactive) | > 100 µM (inactive) | > 100 µM (inactive) | > 100 µM (inactive) | > 100 µM (inactive) | > 100 µM (inactive) | > 100 µM (inactive) | > 100 µM (inactive) | > 100 µM (inactive) | > 100 µM (inactive) | > 100 µM (inactive) |
| O=C1C2C(C(=O)N1O)N(Cc1ccccc1)C(=O)N2Cc1ccccc1 (stereo not given) | > 100 µM (inactive) | > 100 µM (inactive) | > 100 µM (inactive) | > 100 µM (inactive) | > 100 µM (inactive) | > 100 µM (inactive) | > 100 µM (inactive) | > 100 µM (inactive) | > 100 µM (inactive) | > 100 µM (inactive) | > 100 µM (inactive) | > 100 µM (inactive) | > 100 µM (inactive) | > 100 µM (inactive) | > 100 µM (inactive) |
| COc1ccc2c(c1)CCc1c(-c3n[nH]c4c3CCc3cc(OC)ccc3-4)n[nH]c1-2 | 37.9 µM (inactive) | 28.8 µM (inactive) | 29.9 µM (inactive) | 27.6 µM (inactive) | 57.4 µM (inactive) | 21.5 µM (inactive) | 49.1 µM (inactive) | 20.2 µM (inactive) | 50.2 µM (inactive) | 31.3 µM (inactive) | 76.9 µM (inactive) | 26.1 µM (inactive) | 44.1 µM (inactive) | 23.3 µM (inactive) | 30.3 µM (inactive) |
